Experimental data from patent US4372948A, “Derivative of saccharide and physiologically active agent containing the same” (Kureha Kagaku Kogyo Kabushiki Kaisha, priority 1980, dated 1983).

Experiments:
Sarcoma-180 = test: Anti-tumour activity against Sarcoma-180; format: in vivo, mouse (ICR-JCL); conditions: Mus musculus, Sarcoma-180, po, 600 h, 10 times every other day, tumour weight on 25th day, read-out: Antitumour activity, inhibiting rate (I.R.)
Experimental: Sarcoma-180 was transplanted into the axillary part of ICR-JCL mice at a rate of 1×10^6 cells/animal, and after 24 hours of transplantation, each of the present compounds as a solution or dispersion in sterilized physiological saline solution was orally administered to each of the transplanted mice 10 times every other day at a dose of 500 mg/kg/time. On 25th day of the transplantation, tumour node(s) were extirpated from all the mice to determine the weight of the tumour nodes.
Antitumour activity (activity of inhibiting the proliferation of the transplanted sarcoma) of each of the present compounds was derived by the following formula and shown in Table 6:
Antitumour activity (Inhibiting rate, I.R.)=(1-T/C)×100(%).
T represents the total weight of tumour nodes of the group of mice transplanted and administered with the present compound, and
C represents the total weight of tumour nodes of the group of mice transplanted, however, not administered with any agents.

acetic acid writhing = test: Analgetic activity against chemical stimulation of acetic acid (writhing); format: in vivo, mouse (ICR female); conditions: Mus musculus, po, 30 min before 0.6% acetic acid, read-out: I.R. of writhing
Description: (§1) Rate of inhibition (I.R.) (%)=(1-T/C)×100
T represents the average number of writhing of the group of mice administered with the present compound and injected with acetic acid, and C represents the average number of writhing of the group of mice only injected with acetic acid (control).

cotton pellet granuloma = test: Anti-granuloma activity (cotton pellet); format: in vivo, rat; conditions: Rattus norvegicus, po, 192 h, 7 days, read-out: I.R. against cotton pellet edema
Experimental: Following the method of Winter et al. (1963), each two cotton wool pellets, each weighing 30±1 mg, were implanted into the back of each rats of groups of rats, each group consisting of 6 animals, at the positions of mutually symmetrical concerning the median line of the rat. To these groups of the thus operated rats, the present compounds were respectively administered orally and forcibly as a solution or dispersion in distilled water for 7 continuous days, once a day at a dose of 1000 mg/kg/day. On 8th day of the implantation, the granuloma was extirpated and the dry weight of the granuloma was measured, the rate of inhibiting the proliferation of granuloma being obtained as in (5-1) being shown in Table 8.

[1] = system: pyrexia (Saccharomyces cerevisiae); test: Anti-pyrexia activity (yeast-induced); format: in vivo; conditions: Rattus norvegicus, oral, read-out: Rate of inhibiting pyrexia (I.R.)
Experimental: Following the method of Winter et al. (1961), an aqueous dispersion of 20% by weight of Saccharomyces cerevisiae was subcutaneously injected into groups of rats, each group consisting of 6 animals, and after 10-hour fasting, 1000 mg/kg of each of the present compounds was orally administered to the rat as a solution of dispersion in distilled water, and then the rectal temperature of the rat was measured at a predetermined interval of time to find the lowest temperature.
The anti-pyrexia activity of each compound was obtained from the following formula: […]
Anti-pyrexia activity represented by the rate of inhibition (I.R.)
C2 represents the average rectal temperature of negative control (non-treatment), not injected with the yeast and not administered with the present compound,
C1 represents the average temperature of positive control, injected with the yeast and not administered with the compound and T represents the temperature of tested animals, injected with the yeast and administered with the present compound.

beta-lipoprotein = test: Anti-hyperlipemia activity, beta-lipoprotein in blood; format: in vivo, rabbit (Japanese white male); conditions: oral, 300 mg/kg once
Experimental: (§2) Japanese white male rabbits were fed for 3 months with a solid diet containing 1% of cholesterol taken ad lib, and after confirming the raised lipid content of the serum of the rabbits, they were utilized as model animals suffering from experimental arteriosclerosis. Each of the present compounds was administered orally as a solution or dispersion in distilled water to the experimental animals of each group at a dose rate of 300 mg/kg once, and blood samples were taken at a predetermined time interval from the auricular vein of each animal. The content of cholesterol in the blood specimen was traced as the time passed by, with an enzymatic method, and the content of beta-lipoprotein in the same blood specimen was traced with a colorimetry. Each value in Table 7 is the difference between the level just before administration and the level after 3 or 6 hours of the administration.

exudation = test: Anti-exudation activity (air pouch, croton oil); format: in vivo, rat; conditions: 5 days; for inhibition in vivo at 1000 mg/kg/day: Rattus norvegicus, po, 144 h, read-out: I.R. against exudation
Experimental: Following the method of Baris et al. (1965), air was injected subcutaneously into the back of groups of rats, each group consisting of 6 animals to make an air pouch, and 0.5 ml of sesame oil containing 1% by weight of croton oil was injected into the air pouch. Each of the present compounds was orally administered forcibly to each of the groups of rats as a solution or dispersion in distilled water at a dose rate of 1000 mg/kg/day for continued five days. The amount of liquid exudated into the air pouch was measured on 6th day of the operation. The rate of inhibiting the exudation of the liquid was obtained by the same manner as in (5-2) and the results are shown also in Table 8.

level of blood sugar = test: Anti-hyperglycemia activity (reduction of blood sugar level); format: in vivo, rat (Wistar, streptozotocin); conditions: oral, 300 mg/kg
Experimental: A group of Wistar rats to which at first streptozotocin was interperitoneally administered at a rate of 60 mg/kg and of which the positivity of glycosuria was confirmed after a week of the administration and to which regular insulin was further administered and of which the reduction of levels of glucose in urine and blood was once confirmed, however, of which hyperglycemia and hyperglycosuria were again confirmed after a few days was chosen and used as model animals of glycosuria in the following test. After orally administering each of the present compounds to the model animals at a dose of 300 mg/kg body weight, as a solution or dispersion in distilled water, the blood was collected two times, respectively after 3 and 6 hours of the administration.

in vivo = conditions: mouse, in vivo, po, mice, 7 days observation, read-out: LD50, acute oral toxicity
total cholesterol = test: Anti-hyperlipemia activity, total cholesterol in blood; format: in vivo, rabbit (Japanese white male); conditions: oral, 300 mg/kg once; for Reduction of cholesterol level after 3 hrs.: negative = raising
Experimental: as §2

carrageenin edema = test: Anti-Carrageenin edema activity; format: in vivo, rat; conditions: Rattus norvegicus, po, 1000 mg/kg once, read-out: I.R. against carrageenin edema
Experimental: After orally administering each of the present compounds forcibly to each group of rats, composed of 10 animals, as a solution or dispersion in distilled water at a dose of 1000 mg/kg once, 0.1 ml of an aqueous dispersion of 1% carrageenin in aqueous physiological saline solution was injected into the foot pad of the right hind leg of the administered animal following Van Arman et al. (1963). Thereafter, the thickness of the foot pad was measured at a time interval to find the rate of inhibiting of the swelling of the foot pad according to the following formula:
as §1
T means the average volume of the foot pad of the animals administered with one of the present compounds and carrageenin, and
C means that of the animal not administered with the present compound, however, administered with carrageenin.

[2] = system: pseudo-escaping reaction to tail pressure; test: Analgetic activity against mechanical stimulation of pressure; format: in vivo, mouse (ICR female); conditions: oral, 1000 mg/kg
blood pressure = test: Anti-hypertension activity (reduction of blood pressure); format: in vivo, rat (spontaneous hypertension); conditions: oral, 300 mg/kg
Experimental: Rats of spontaneous hypertension were orally administered with each of the present compounds as a solution or dispersion in distilled water at a dose rate of 300 mg/kg body weight. After 3 and 6 hours of the administration, the blood pressure of each rat was determined, and the difference between the above-determined value and the value just before the administeration was used as the index of the activity of reducing the blood pressure of the compound.

Compound | inhibition in vivo at 500 mg/kg (Sarcoma-180) [%] | inhibition in vivo at 1000 mg/kg (acetic acid writhing) [%] | inhibition in vivo at 1000 mg/kg/day (cotton pellet granuloma) [%] | inhibition in vivo at 1000 mg/kg [1] [%] | Reduction of beta-lipoprotein level after 3 hrs. (beta-lipoprotein) [mg/dL] | Reduction of beta-lipoprotein level after 6 hrs. (beta-lipoprotein) [mg/dL] | inhibition in vivo at 1000 mg/kg/day (exudation) [%] | Reduced level of blood sugar after 3 hrs. (level of blood sugar) [mg/dL] | Reduced level of blood sugar after 6 hrs. (level of blood sugar) [mg/dL] | LD50 at 168 h (in vivo) [mg/kg] | Reduction of cholesterol level after 3 hrs. (total cholesterol) [mg/dL] | Reduction of cholesterol level after 6 hrs. (total cholesterol) [mg/dL] | inhibition in vivo at 1000 mg/kg (carrageenin edema) [%] | Pseudo-escapting reaction pressure [2] [mmHg] | Pseudo-escapting reaction time [2] [s] | Reduced level of blood pressure after 3 hrs. (blood pressure) [mm Hg] | Reduced level of blood pressure after 6 hrs. (blood pressure) [mm Hg] | also measured
NC(=O)c1ccccc1NC1(CO)OC[C@@H](O)[C@@H](O)[C@@H]1O (stereo partly drawn) [Compound 1, o-Aminobenzoic acid amide-N-D-fructoside] | 42 | 17 | 6.6 | 41 | 120 | 131 | 17.5 | 68 | 92 | 11800 | -2 | 36 | 15.6 | 78 | 38 | 16 | 19 | 
NC(=O)c1cccc(NC2O[C@H](CO)[C@@H](O[C@@H]3O[C@H](CO)[C@@H](O)[C@H](O)[C@H]3O)[C@H](O)[C@H]2O)c1 (stereo partly shown) [Compound 2, m-aminobenzoic acid amide-N-cellobioside] | 35 | 20 | 6.1 | 36 | 108 | 124 | 6.6 | 85 | 103 | > 15000 | 1 | 30 | 20.3 | 84 | 42 | 20 | 22 | 
NC(=O)c1ccc(NC2OC[C@@H](O)[C@H](O)[C@H]2O)cc1 (stereo partly drawn) [Compound 3, p-aminobenzoic acid amide-N-D-xyloside] | 47 | 22 | 7 | 20 | 115 | 119 | 19.1 | 101 | 115 | > 15000 | 3 | 45 | 26.5 | 93 | 44 | 20 | 24 | 
C[C@@H]1OC(Nc2ccc(CC(=O)O)cc2)[C@H](O)[C@H](O)[C@H]1O (stereo partly drawn) [Compound 27, p-aminophenylacetic acid-N-L-rhamnoside] | 43 | 35 | 23.1 |  |  |  |  | 91 | 90 | 13800 |  |  | 5.2 | 91 | 40 | 20 | 20 | Reduction of beta-lipoprotein level after 3 hrs. (beta-lipoprotein; 300 mg/kg): 125 mg/dL; Reduction of beta-lipoprotein level after 6 hrs. (beta-lipoprotein; 300 mg/kg): 130 mg/dL; I.R. against exudation (exudation; oral, 1000 mg/kg/day): 16.5%; Reduction of cholesterol level after 3 hrs. (total cholesterol; 300 mg/kg): 1 mg/dL; Reduction of cholesterol level after 6 hrs. (total cholesterol; 300 mg/kg): 30 mg/dL
